# Test results taken from ChEMBL document CHEMBL3045391, “Synthesis and biological evaluation of 5,7-diaryl-4,4-dimethyl-4,5,6,7-tetrahydropyridino[3,4-d]-1,2,3-thiadiazoles” (2007).
# Calls of active or inactive are those of the source. The calls are words filed in the database; no cut-off is given here.
# What was measured:
# [1] = system: Klebsiella pneumoniae; assay: Antibacterial activity against Klebsiella pneumoniae at 500 ppm after 24 hr by disk diffusion method; type: functional; settings: read-out: IZ
# [2] = system: Pseudomonas; assay: Antibacterial activity against Pseudomonas at 100 ppm after 24 hr by disk diffusion method; type: functional
# [3] = system: Mucor; assay: Antifungal activity against Mucor at 100 ppm after 72 to 96 hr by disk diffusion method; type: functional
# [4] = system: Escherichia coli; assay: Antibacterial activity against Escherichia coli at 500 ppm after 24 hr by disk diffusion method; type: functional; settings: read-out: IZ
# [5] = system: Escherichia coli; assay: Antibacterial activity against Escherichia coli at 100 ppm after 24 hr by disk diffusion method; type: functional, organism-based
# [6] = system: Staphylococcus aureus; assay: Antibacterial activity against Staphylococcus aureus at 200 ppm after 24 hr by disk diffusion method; type: functional; settings: read-out: IZ
# [7] = system: Pseudomonas; assay: Antibacterial activity against Pseudomonas at 500 ppm after 24 hr by disk diffusion method; type: functional; settings: read-out: IZ
# [8] = system: Mucor; assay: Antifungal activity against Mucor at 200 ppm after 72 to 96 hr by disk diffusion method; type: functional; settings: read-out: IZ
# [9] = system: Klebsiella pneumoniae; assay: Antibacterial activity against Klebsiella pneumoniae at 100 ppm after 24 hr by disk diffusion method; type: functional; settings: read-out: IZ
# [10] = system: Nannizzia gypsea; assay: Antifungal activity against Microsporum gypseum at 500 ppm after 72 to 96 hr by disk diffusion method; type: functional; settings: read-out: IZ
# [11] = system: Aspergillus flavus; assay: Antifungal activity against Aspergillus flavus at 500 ppm after 72 to 96 hr by disk diffusion method; type: functional; settings: read-out: IZ
# [12] = system: Vibrio cholerae; assay: Antibacterial activity against Vibrio cholerae at 200 ppm after 24 hr by disk diffusion method; type: functional; settings: read-out: IZ
# [13] = system: Pseudomonas; assay: Antibacterial activity against Pseudomonas at 200 ppm after 24 hr by disk diffusion method; type: functional; settings: read-out: IZ
# [14] = system: Nannizzia gypsea; assay: Antifungal activity against Microsporum gypseum at 100 ppm after 72 to 96 hr by disk diffusion method; type: functional; settings: read-out: IZ
# [15] = system: Aspergillus flavus; assay: Antifungal activity against Aspergillus flavus at 100 ppm after 72 to 96 hr by disk diffusion method; type: functional; settings: read-out: IZ
# [16] = system: Salmonella typhi; assay: Antibacterial activity against Salmonella enterica subsp. enterica serovar Typhi at 500 ppm after 24 hr by disk diffusion method; type: functional; settings: read-out: IZ
# [17] = system: Nannizzia gypsea; assay: Antifungal activity against Microsporum gypseum at 200 ppm after 72 to 96 hr by disk diffusion method; type: functional; settings: read-out: IZ
# [18] = system: Staphylococcus aureus; assay: Antibacterial activity against Staphylococcus aureus at 500 ppm after 24 hr by disk diffusion method; type: functional; settings: read-out: IZ
# [19] = system: Shigella flexneri; assay: Antibacterial activity against Shigella flexneri at 100 ppm after 24 hr by disk diffusion method; type: functional; settings: for zone of inhibition at 100 ppm: read-out: IZ
# [20] = system: Aspergillus flavus; assay: Antifungal activity against Aspergillus flavus at 200 ppm after 72 to 96 hr by disk diffusion method; type: functional; settings: read-out: IZ
# [21] = system: Mucor; assay: Antifungal activity against Mucor at 500 ppm after 72 to 96 hr by disk diffusion method; type: functional; settings: read-out: IZ
# [22] = system: Streptococcus; assay: Antibacterial activity against beta-hemolytic Streptococcus at 200 ppm after 24 hr by disk diffusion method; type: functional; settings: read-out: IZ
# [23] = system: Escherichia coli; assay: Antibacterial activity against Escherichia coli at 200 ppm after 24 hr by disk diffusion method; type: functional; settings: read-out: IZ
# [24] = system: Vibrio cholerae; assay: Antibacterial activity against Vibrio cholerae at 500 ppm after 24 hr by disk diffusion method; type: functional; settings: read-out: IZ
# [25] = system: Rhizopus; assay: Antifungal activity against Rhizopus at 100 ppm after 72 to 96 hr by disk diffusion method; type: functional; settings: for zone of inhibition at 100 ppm: read-out: IZ
# [26] = system: Streptococcus; assay: Antibacterial activity against beta-hemolytic Streptococcus at 500 ppm after 24 hr by disk diffusion method; type: functional; settings: read-out: IZ
# [27] = system: Salmonella typhi; assay: Antibacterial activity against Salmonella enterica subsp. enterica serovar Typhi at 100 ppm after 24 hr by disk diffusion method; type: functional; settings: for zone of inhibition at 100 ppm: read-out: IZ
# [28] = system: Salmonella typhi; assay: Antibacterial activity against Salmonella enterica subsp. enterica serovar Typhi at 200 ppm after 24 hr by disk diffusion method; type: functional; settings: read-out: IZ
# [29] = system: Staphylococcus aureus; assay: Antibacterial activity against Staphylococcus aureus at 100 ppm after 24 hr by disk diffusion method; type: functional; settings: for zone of inhibition at 100 ppm: read-out: IZ
# [30] = system: Rhizopus; assay: Antifungal activity against Rhizopus at 200 ppm after 72 to 96 hr by disk diffusion method; type: functional; settings: read-out: IZ
# [31] = system: Klebsiella pneumoniae; assay: Antibacterial activity against Klebsiella pneumoniae at 200 ppm after 24 hr by disk diffusion method; type: functional; settings: read-out: IZ
# [32] = system: Shigella flexneri; assay: Antibacterial activity against Shigella flexneri at 200 ppm after 24 hr by disk diffusion method; type: functional; settings: read-out: IZ
# [33] = system: Shigella flexneri; assay: Antibacterial activity against Shigella flexneri at 500 ppm after 24 hr by disk diffusion method; type: functional; settings: read-out: IZ
# [34] = system: Streptococcus; assay: Antibacterial activity against beta-hemolytic Streptococcus at 100 ppm after 24 hr by disk diffusion method; type: functional, organism-based
# [35] = system: Rhizopus; assay: Antifungal activity against Rhizopus at 500 ppm after 72 to 96 hr by disk diffusion method; type: functional; settings: read-out: IZ
# [36] = system: Vibrio cholerae; assay: Antibacterial activity against Vibrio cholerae at 100 ppm after 24 hr by disk diffusion method; type: functional; settings: read-out: IZ
Structure (SMILES),zone of inhibition at 500 ppm [1],zone of inhibition at 500 ppm [4],inhibition zone (IZ) [5],zone of inhibition at 200 ppm [6],zone of inhibition at 500 ppm [7],zone of inhibition at 200 ppm [8],zone of inhibition at 100 ppm [9],zone of inhibition at 500 ppm [10],zone of inhibition at 500 ppm [11],zone of inhibition at 200 ppm [12],zone of inhibition at 200 ppm [13],zone of inhibition at 100 ppm [14],zone of inhibition at 100 ppm [15],zone of inhibition at 500 ppm [16],zone of inhibition at 200 ppm [17],zone of inhibition at 500 ppm [18],zone of inhibition at 200 ppm [20],zone of inhibition at 500 ppm [21],zone of inhibition at 200 ppm [22],zone of inhibition at 200 ppm [23],also measured
CC1(C)c2nnsc2C(c2ccccc2)NC1c1ccccc1 (centres undefined),22 mm,12 mm,inactive,17 mm,12 mm,12 mm,12 mm,30 mm,17 mm,12 mm,12 mm,12 mm,12 mm,12 mm,17 mm,22 mm,12 mm,17 mm,12 mm,12 mm,zone of inhibition at 100 ppm ([2]; read-out: IZ): 12 mm; inhibition zone (IZ) [3]: inactive; inhibition zone (IZ) [19]: inactive; zone of inhibition at 500 ppm [24]: 17 mm; zone of inhibition at 100 ppm [25]: 12 mm; zone of inhibition at 500 ppm [26]: 22 mm; zone of inhibition at 100 ppm [27]: 12 mm; zone of inhibition at 200 ppm [28]: 12 mm; inhibition zone (IZ) [29]: inactive; zone of inhibition at 200 ppm [30]: 17 mm; zone of inhibition at 200 ppm [31]: 17 mm; zone of inhibition at 200 ppm [32]: 12 mm; zone of inhibition at 500 ppm [33]: 17 mm; inhibition zone (IZ) [34]: inactive; zone of inhibition at 500 ppm [35]: 17 mm; zone of inhibition at 100 ppm [36]: 12 mm
COc1ccc(C2NC(c3ccc(OC)cc3)C(C)(C)c3nnsc32)cc1 (centres undefined),22 mm,17 mm,inactive,22 mm,12 mm,17 mm,17 mm,30 mm,17 mm,17 mm,12 mm,12 mm,12 mm,17 mm,17 mm,30 mm,12 mm,17 mm,12 mm,17 mm,inhibition zone (IZ) [2]: inactive; zone of inhibition at 100 ppm ([3]; read-out: IZ): 12 mm; zone of inhibition at 100 ppm [19]: 12 mm; zone of inhibition at 500 ppm [24]: 17 mm; inhibition zone (IZ) [25]: inactive; zone of inhibition at 500 ppm [26]: 30 mm; zone of inhibition at 100 ppm [27]: 12 mm; zone of inhibition at 200 ppm [28]: 17 mm; zone of inhibition at 100 ppm [29]: 12 mm; zone of inhibition at 200 ppm [30]: 12 mm; zone of inhibition at 200 ppm [31]: 17 mm; zone of inhibition at 200 ppm [32]: 17 mm; zone of inhibition at 500 ppm [33]: 17 mm; inhibition zone (IZ) [34]: inactive; zone of inhibition at 500 ppm [35]: 22 mm; zone of inhibition at 100 ppm [36]: 12 mm
Cc1ccc(C2NC(c3ccc(C)cc3)C(C)(C)c3nnsc32)cc1 (centres undefined),22 mm,17 mm,inactive,22 mm,12 mm,17 mm,17 mm,30 mm,12 mm,17 mm,12 mm,17 mm,12 mm,12 mm,22 mm,30 mm,12 mm,17 mm,17 mm,12 mm,inhibition zone (IZ) [2]: inactive; inhibition zone (IZ) [3]: inactive; zone of inhibition at 100 ppm [19]: 12 mm; zone of inhibition at 500 ppm [24]: 17 mm; zone of inhibition at 100 ppm [25]: 12 mm; zone of inhibition at 500 ppm [26]: 30 mm; zone of inhibition at 100 ppm [27]: 12 mm; zone of inhibition at 200 ppm [28]: 12 mm; inhibition zone (IZ) [29]: inactive; zone of inhibition at 200 ppm [30]: 17 mm; zone of inhibition at 200 ppm [31]: 17 mm; zone of inhibition at 200 ppm [32]: 17 mm; zone of inhibition at 500 ppm [33]: 17 mm; inhibition zone (IZ) [34]: inactive; zone of inhibition at 500 ppm [35]: 22 mm; zone of inhibition at 100 ppm [36]: 12 mm
CC1(C)c2nnsc2C(c2ccc(Cl)cc2)NC1c1ccc(Cl)cc1 (centres undefined),22 mm,17 mm,inactive,22 mm,12 mm,12 mm,12 mm,22 mm,17 mm,12 mm,12 mm,12 mm,12 mm,17 mm,17 mm,30 mm,12 mm,12 mm,12 mm,12 mm,inhibition zone (IZ) [2]: inactive; inhibition zone (IZ) [3]: inactive; zone of inhibition at 100 ppm [19]: 12 mm; zone of inhibition at 500 ppm [24]: 12 mm; inhibition zone (IZ) [25]: inactive; zone of inhibition at 500 ppm [26]: 30 mm; inhibition zone (IZ) [27]: inactive; zone of inhibition at 200 ppm [28]: 17 mm; zone of inhibition at 100 ppm [29]: 12 mm; zone of inhibition at 200 ppm [30]: 12 mm; zone of inhibition at 200 ppm [31]: 17 mm; zone of inhibition at 200 ppm [32]: 12 mm; zone of inhibition at 500 ppm [33]: 12 mm; inhibition zone (IZ) [34]: inactive; zone of inhibition at 500 ppm [35]: 22 mm; zone of inhibition at 100 ppm [36]: 12 mm
